Source: US11427783B2, “Perfuming compositions” (Firmenich SA, priority 2016, dated 2022)
Counter-ions that a name gives are not always drawn. Like-named read-outs stand apart in the source and are kept apart here.

Legend:
[1] = Log P (n-octanol/water) of perfuming compounds
[2] = Odor threshold of perfuming compounds in air
[3] = Volatility of perfuming compounds in air; assay type: physicochemical
[4] = Table 5, perfuming compounds having a green note
[5] = n-octanol/water, perfuming compounds having a fruity note (Table 6)

SMILES | Log P (n-octanol/water) ([1]; Table 7, citrus note) | logP (physchem; n-octanol/water) | Volatility ([3]; Table 7, citrus note) [μg/l air] | Volatility ([3]; Table 4, watery note) [μg/l air] | Log P (n-octanol/water) [1, 4] | Volatility [3, 4] [μg/l air] | Log P (n-octanol/water) [1, 5] | Odor Threshold ([2]; Table 7, citrus note) [μg/l air] | Odor Threshold ([2]; Table 4, watery note) [μg/l air] | logP (physchem)
CCCCCCCOC(C)=O [heptyl acetate] | 3.69 | 3.69 | – | – | – | – | – | 1.32E−01 | – | –
CC(C)=CCCC(C)CCOCC=O (racemic) | – | 4.33 | 4.70 | – | – | – | – | 8.95E−04 | – | –
CCCCCCCCCCC=O [undecanal] | – | 4.56 | – | 178.29 | – | – | – | – | 1.65E−03 | –
C=CC(C)(CCC=C(C)C)OC(C)=O (racemic) [(+−)-1,5-DIMETHYL-1-VINYL-4-HEXENYL ACETATE] | 4.04 | – | – | – | – | – | 4.04 | 7.40E−02 | – | 4.04
CCCCCCCCOC(C)=O [octyl acetate] | 4.29 | 4.29 | – | – | – | – | – | 1.76E−01 | – | –
CCCCCCCCCCCC#N [DODECANENITRILE] | – | 1.61 | – | 56.74 | – | – | – | – | 3.20E−06 | –
CCCCC[C@H]1C(=O)CC[C@@H]1CC(=O)OC (racemic) [methyl 2-((1RS,2RS)-3-oxo-2-pentylcyclopentyl)acetate] | – | 2.92 | 2.12 | – | – | – | – | 5.77E−04 | – | –
C=CCCCCCCCCC=O [10-undecenal] | – | 3.93 | – | 136.73 | – | – | – | – | 3.15E−03 | –
CCCCCC#CC(=O)OC [METHYL 2-OCTYNOATE″, METHYL 2-OCTYNOATE] | – | 2.9 | – | 472.01 | – | 472.01 | – | – | 8.31E−04 | –
CCCCCCCCCC=O [DECANAL″, DECANAL] | – | 3.99 | – | 466.56 | – | – | – | – | 1.92E−03 | –
CCCCCCC#CC(=O)OC [METHYL 2-NONYNOATE] | – | 3.51 | – | 91.76 | 3.51 | 91.76 | – | – | 1.60E−03 | –
CCCCCC(C#N)CCC (racemic) [(+−)-2-propylheptanenitrile] | 3.67 | 3.67 | – | – | – | – | – | 7.83E−02 | – | –
CC(C)CC1CC(C)(O)CCO1 (racemic) [(+−)-TETRAHYDRO-2-ISOBUTYL-4-METHYL-4(2H)-PYRANOL] | – | 2.22 | – | 79.79 | – | – | – | – | 1.35E−02 | –
CC/C=C\CC/C=C/CO [(2E,6Z)-2,6-NONADIEN-1-OL] | – | 2.68 | – | 98.76 | 2.68 | 98.76 | – | – | 3.22E−06 | –
CCCCCCCCC=O [nonanal] | 3.42 | 3.42 | 2777.63 | – | – | 2777.63 | – | 8.14E−03 | – | –
CCCCCC=O [hexanal] | 2.00 | 2 | 68294.85 | – | – | 68294.85 | – | 1.76E−03 | – | –
CCC/C=C/C=O [(2E)-2-HEXENAL] | 1.62 | 1.62 | – | – | – | – | 1.62 | 2.53E−03 | – | –
COC(=O)c1c(C)cc(O)c(C)c1O [METHYL 2,4-DIHYDROXY-3,6-DIMETHYLBENZOATE] | – | 2.3 | – | 1.52 | – | – | – | – | 4.89E−06 | –
CCCCCCCCCCCC=O [DODECANAL] | – | 4.94 | – | 144.79 | – | – | – | – | 9.90E−04 | –
CC(C=O)Cc1ccc2c(c1)OCO2 (racemic) [(+−)-3-(1,3-BENZODIOXOL-5-YL)-2-METHYLPROPANAL] | – | – | – | 3.57 | – | – | – | – | 2.23E−04 | 1.28

Second part, led by results:

Log P (n-octanol/water) ([1]; Table 7, citrus note) | logP (physchem; n-octanol/water) | Volatility ([3]; Table 7, citrus note) [μg/l air] | Volatility ([3]; Table 4, watery note) [μg/l air] | Log P (n-octanol/water) [1, 4] | Volatility [3, 4] [μg/l air] | Log P (n-octanol/water) [1, 5] | SMILES | Odor Threshold ([2]; Table 7, citrus note) [μg/l air] | Odor Threshold ([2]; Table 4, watery note) [μg/l air] | logP (physchem)
– | 3.59 | – | 24.85 | – | – | – | CC(C=O)Cc1ccc(C(C)C)cc1 (racemic) [(+−)-3-(4-isopropylphenyl)-2-methylpropanal] | – | 3.00E−03 | –
– | 2.97 | – | 4.37 | 2.97 | 4.37 | – | CC(C)(C)c1ccc2c(c1)OCC(=O)CO2 [7-(2-methyl-2-propanyl)-2H-1,5-benzodioxepin-3(4H)-one] | – | 1.53E−04 | –
– | 2 | – | 12.81 | – | – | – | CC(CC=O)CCCC(C)(C)O (racemic) [(+−)-7-hydroxy-3,7-dimethyloctanal] | – | 6.98E−03 | –
– | 3.15 | – | – | – | – | 3.15 | CC(C)=CCCC(C)C=O (racemic) | – | 2.11E−04 | –
– | 5.01 | – | 75.55 | – | – | – | CCCCCCCCCC(C)C=O (racemic) [(+−)-2-methylundecanal] | – | 7.24E−05 | –
– | 3.81 | – | 131.02 | 3.81 | 131.02 | – | CC1=CC2CC(C=O)C1CC2C(C)C (stereo not drawn) [8-ISOPROPYL-6-METHYL-BICYCLO[2.2.2]OCT-5-ENE-2-CARBALDEHYDE] | – | 7.11E−05 | –
– | – | 4298.67 | – | – | – | – | CC1=CCC(C(C)C)=CC1 [1-methyl-4-(2-propanyl)-1,4-cyclohexadiene] | 1.16E−01 | – | 5.87
– | 2.79 | – | 4.85 | 2.79 | 4.85 | – | CCCc1ccc2c(c1)OCC(=O)CO2 [7-PROPYL-2H,4H-1,5-BENZODIOXEPIN-3-ONE] | – | 6.43E−05 | –
– | 2.8 | – | 18.99 | 2.80 | 18.99 | – | COc1ccc(CC(C)C=O)cc1 (racemic) [(+−)-3-(4-methoxyphenyl)-2-methylpropanal] | – | 9.79E−03 | –
– | 4.24 | 76.57 | – | – | – | – | CC(C)CCCC(C)CCO (racemic) | 4.59E−02 | – | –
1.90 | 1.9 | – | – | – | – | 1.90 | O=COCCc1ccccc1 [2-PHENYLETHYL FORMATE] | 8.34E−04 | – | –
– | 5.2 | – | 18.23 | – | – | – | CC(C)=CCCC(C)CCCC(C)C=O (racemic) | – | 1.59E−02 | –
– | 3.82 | 22.67 | – | – | – | – | CCOc1ccc2ccccc2c1 [2-ETHOXYNAPHTHALENE] | 3.57E−03 | – | –
– | 3.9 | – | 12.86 | – | – | – | CC(C=O)Cc1ccc(C(C)(C)C)cc1 (racemic) [(+−)-2-methyl-3-[4-(2-methyl-2-propanyl)phenyl]propanal] | – | 2.39E−04 | –
– | 3.12 | – | 4.86 | – | – | – | Cc1ccc2c(c1)CC(C)(CO)C2 (racemic) | – | 1.28E−04 | –
– | 5.14 | – | 26.54 | – | – | – | CC(C)=CCCC1=CCC(C)(C=O)CC1 (racemic) | – | 2.72E−02 | –
2.85 | 2.85 | – | – | – | – | – | CCC(C)C(=O)OC(C)C (racemic) [(+−)-ISOPROPYL 2-METHYLBUTANOATE] | 8.42E−03 | – | –
3.12 | 3.12 | – | – | – | – | – | C=CC(C)CC(=O)CC(C)C (racemic) | 2.78E−01 | – | –
2.22 | 2.22 | – | – | – | – | – | CC(=O)OC(C)c1ccccc1 (racemic) [(+−)-1-PHENYLETHYL ACETATE] | 4.43E−02 | – | –
3.57 | 3.57 | – | – | – | – | 3.57 | COCC(C)Cc1ccccc1 (racemic) [(+−)-(3-methoxy-2-methylpropyl)benzene] | 1.51E−02 | – | –
